Measurements published in patent EP2605769B1, “BENZOQUINONE DERIVATIVES FOR THE TREATMENT OF MITCHONDRIAL EYE DISEASES” (Santhera Pharmaceuticals (Schweiz) AG, priority 2010, dated 2012).
“And” between values parts separate entries of the source, which are not always exact repeats. Equal entries are not always repeated. Marks after values point to notes of the source that are not given here.

Experiments:
RGC-5 cells = assay: Cellular viability of RGC-like cells challenged with rotenone (cellular ATP content); assay type: cell-based
Source text: Mitochondrial impairment directly influences cellular survival. Especially cells and tissues that display high level of energy consumption, such as neurons are especially vulnerable. Consequently, these cells and tissues are likely to be the most responsive to a strategy that targets mitochondrial function. We addressed this possibility by assessing the viability of the retinal ganglion cell line RGC-5, challenged with the mitochondrial complex I inhibitor rotenone, in the absence or presence of compounds.
Experimental procedure: RGC-5 cells were cultured under ambient conditions (37 °C, 5% CO2, 90% humidity) in DMEM (1g/l glucose; 10% fetal bovine serum (FBS), Penicillin-Streptomycin-Glutamine (PSG)). RGC-5 cells will be seeded in DMEM (1g/l glucose; 2% FBS) into BD Falcon™ cell culture plates. Before rotenone- induced complex I inhibition, the cells were pre-treated with Compound IA or vehicle. For Compound IA co-treatment with rotenone, new compound was added together with rotenone-containing cell culture media. After the rotenone exposure, the media was exchanged and replaced by Hanks' BSS for the 1 day post-incubation. The post-treatment media contained Compound IA or vehicle only. As measure of cell viability, cellular ATP content was analyzed using luminescence from ATP-dependent enzymatic oxidation of luciferin by luciferase. RGC-5 cells were be washed with PBS and lysed in lysis buffer (4 mM EDTA, 0.2% Triton X-100) at room temperature. In 96-well plates, ATP measurement buffer (25 mM HEPES pH 7.25, 300 µM D-luciferin, 5 µg/ml firefly luciferase, 75 µM DTT, 6.25 mM MgCl2, 625 µM EDTA and 1 mg/ml BSA) was combined with lysate to start the reaction. Luminescence was quantified immediately using a multimode plate reader (Tecan M1000, Tecan iControl 1.6 software; Tecan Austria GmbH, Grödig, Austria). Effects on cell viability were defined as the percentage of compound-mediated change in cell viability relative to rotenone-induced reduction in cell viability. Data are presented as mean ± SEM. Paired Student's t-test was used to compare non-normalized data. Statistical significance was set at p≤0.05(*), p≤0.01(**) and p≤0.001(***).

C57BL/6J mice = assay: Mouse model of intravitreal rotenone injection, histopathological analyses of retinal degeneration, first study; assay type: in vivo; conditions: ± SEM; for Gliosis: GFAP immunostaining RFU; for Gliosis / Retinal thickness: 7 days post-injection; for Glutamine-synthetase: GS immunostaining RFU; for Glutamine-synthetase / RGC number: 1 day post-injection
Source text: This mouse model is used to assess the therapeutic potential of compounds in eye disorders characterized by mitochondrial dysfunction such as LHON, DOA, macular degeneration, retinopathy, and complex I deficiency. It is a widely accepted in vivo model based on single-eye intravitreal injection of the mitochondrial complex I inhibitor rotenone in the adult mouse. Intravitreal injection of rotenone induces neurotoxicity through mitochondrial complex I dysfunction in the retina which is the main molecular dysfunction […]. […] Histological analysis includes quantitative measurement of the retinal thickness (whole retina and individual layers), RGC apoptosis and cell death, oxidative stress, glutamine synthetase expression, and gliosis. The non-injected eye is used as a within subject, i.e. intraindividual, control. Male wild-type C57BL/6J mice (7 weeks old, about 25 g body weight) are individually housed in Makrolon type II cages with standard bedding and free access to food and water under a regular 12-hours light-dark cycle (8 a.m. to 8 p.m.). […] The injection is performed over a period of 2 min and the needle is kept in place for an additional 3 min, after which it is gently removed. Sterile surgical glue (Histoacryl, BRAUN/Aesculap AG, Germany) is used to seal the site of injection and a sterile antimicrobial ophtalmic ointment (Neosporin, GlaxoSmithKline, UK) is applied to the injected eye to avoid any infection. […] The eye balls are removed, retinas are dissected, fixed for an additional 2 h at 4°C, incubated in PB 0.1 M and 30% sucrose overnight, frozen in optimal cutting temperature compound (O.C.T., Tissue-Tek, Miles Laboratories, Elkhart, IN, USA), sliced at 14 µm, and collected onto glass slides for immunostaining. Immunostaining is performed accordingly to conventional method using multiple primary antibodies. Fluorescent-conjugated secondary antibodies and DAPI are used for visualization under a fluorescence microscope. All procedures are performed in accordance with the Swiss regulation and under a license approved by the "Kantonales Veterinäramt Basel-Land". Results: […] Table 5 In Table 5, the histological data are expressed as % of sham (DMSO) injected control ± SEM. […] IA 400 means a pretreatment with Compound IA at 400 mg/kg, similarily IA 2000 means a pretreatment with Compound IA at 2000 mg/kg. Statistical significance relative to vehicle + rotenone group is p ≤ 0.05 (*), p ≤ 0.01 (**). n is the number of retinas per group.

[1] = 400 mg/kg pretreatment 3 weeks + rotenone
[2] = 2000 mg/kg pretreatment 3 weeks + rotenone

COC1=C(OC)C(=O)C(CCCCCCCCCCO)=C(C)C1=O [Compound IA, Idebenone]
cell viability, compound-mediated change relative to rotenone-induced reduction, mean (RGC-5 cells; 1 day-preincubation, 100 nM): 12.6% | cell viability, compound-mediated change relative to rotenone-induced reduction, mean (Fig. 2) (RGC-5 cells; 1 day-preincubation, 1 µM): highly significant | cell viability, compound-mediated change relative to rotenone-induced reduction, mean (RGC-5 cells; 2 day-preincubation, 1 nM): 1.0% | cell viability, compound-mediated change relative to rotenone-induced reduction, mean (RGC-5 cells; 2 day-preincubation, 10 nM): 7% and 7.3% | cell viability, compound-mediated change relative to rotenone-induced reduction, mean (RGC-5 cells; 2 day-preincubation, 100 nM): 35% and 34.9% | cell viability, compound-mediated change relative to rotenone-induced reduction, mean (RGC-5 cells; 2 day-preincubation, 1000 nM): 58% and 58.4% | concentrations at which viability of RGC-5 cells was significantly rescued (RGC-5 cells; rotenone challenge, dose dependent): ≥ 10 nM | Gliosis (C57BL/6J mice; 400 mg/kg + rotenone): 112.7 ± 11.9 * (n=3) % of sham (DMSO) injected control | Glutamine-synthetase (C57BL/6J mice; 400 mg/kg + rotenone): 98.5 ± 1.9 (n=5) % of sham (DMSO) injected control | RGC number (C57BL/6J mice; [1]): 94.6 ± 3.2 ** (n=3) % of sham (DMSO) injected control | Retinal thickness (C57BL/6J mice; [1]): 84.3 ± 2.9 ** (n=3) % of sham (DMSO) injected control | Gliosis (C57BL/6J mice; 2000 mg/kg + rotenone): 134.7 ± 10.7* (n=3) % of sham (DMSO) injected control | Glutamine-synthetase (C57BL/6J mice; 2000 mg/kg + rotenone): 99 ± 2.9 * (n=6) % of sham (DMSO) injected control | RGC number (C57BL/6J mice; [2]): 101.3 ± 11.3 (n=3) % of sham (DMSO) injected control | Retinal thickness (C57BL/6J mice; [2]): 76.9 ± 10.1 (n=4) % of sham (DMSO) injected control
